How the values were obtained:
Assay in all cases: relative viability (nuclei count vs DMSO), 5 days (fraction); higher = more cells survive
RU-SKI 43 + Foretinib = compound: CC[C@@H](C)CNCC(=O)N1CCC2=C([C@@H]1COC3=CC=CC(=C3)C)C=CS2 [RU-SKI 43] + COc1cc2c(Oc3ccc(NC(=O)C4(C(=O)Nc5ccc(F)cc5)CC4)cc3F)ccnc2cc1OCCCN1CCOCC1 [Foretinib] (partner 0.25 µM)
How it was run: (§1)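 For relative viability, nuclei counts in treated wells were divided by those in vehicle wells. Lung cancer cell lines had been pin-tool dosed in 1536-well plates the day after seeding and cultured for 5 days, then fixed and stained in one step (final 0.05% Triton X-100, 1% formaldehyde, 1 ug/ml Hoechst) and imaged at 4×. Doses were one drug alone or a fixed anchor-drug dose plus five library-drug doses (not always all listed) in √10 steps, and values are duplicate-plate medians.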

RU-SKI 43 + Linsitinib = compound: CC[C@@H](C)CNCC(=O)N1CCC2=C([C@@H]1COC3=CC=CC(=C3)C)C=CS2 [RU-SKI 43] + C[C@]1(O)C[C@@H](c2nc(-c3ccc4ccc(-c5ccccc5)nc4c3)c3c(N)nccn32)C1 [Linsitinib] (partner 1 µM)
How it was run: as §1

MK-8033 + Linsitinib = compound: Cn1cc(-c2cnc3ccc4ccc(CS(=O)(=O)NCc5ccccn5)cc4c(=O)c3c2)cn1 [MK-8033] + C[C@]1(O)C[C@@H](c2nc(-c3ccc4ccc(-c5ccccc5)nc4c3)c3c(N)nccn32)C1 [Linsitinib] (partner 1 µM)
How it was run: as §1

MK-8033 + Tozasertib = compound: Cn1cc(-c2cnc3ccc4ccc(CS(=O)(=O)NCc5ccccn5)cc4c(=O)c3c2)cn1 [MK-8033] + Cc1cc(Nc2cc(N3CCN(C)CC3)nc(Sc3ccc(NC(=O)C4CC4)cc3)n2)n[nH]1 [Tozasertib] (partner 0.1 µM)
How it was run: as §1

Row | Cell Line | relative viability (RU-SKI 43 + Foretinib; first compound 0.1 µM) | relative viability (RU-SKI 43 + Foretinib; first compound 0.3162 µM) | relative viability (RU-SKI 43 + Foretinib; first compound 1 µM) | relative viability (RU-SKI 43 + Foretinib; first compound 3.162 µM) | relative viability (RU-SKI 43 + Foretinib; first compound 10 µM) | relative viability (RU-SKI 43 + Linsitinib; first compound 0.1 µM) | relative viability (RU-SKI 43 + Linsitinib; first compound 0.3162 µM) | relative viability (RU-SKI 43 + Linsitinib; first compound 1 µM) | relative viability (RU-SKI 43 + Linsitinib; first compound 3.162 µM) | relative viability (RU-SKI 43 + Linsitinib; first compound 10 µM) | relative viability (MK-8033 + Linsitinib; first compound 0.02 µM) | relative viability (MK-8033 + Linsitinib; first compound 0.06325 µM) | relative viability (MK-8033 + Linsitinib; first compound 0.2 µM) | relative viability (MK-8033 + Linsitinib; first compound 0.6325 µM) | relative viability (MK-8033 + Linsitinib; first compound 2 µM) | relative viability (MK-8033 + Tozasertib; first compound 0.02 µM) | relative viability (MK-8033 + Tozasertib; first compound 0.2 µM) | relative viability (MK-8033 + Tozasertib; first compound 0.6325 µM) | relative viability (MK-8033 + Tozasertib; first compound 2 µM) | relative viability (MK-8033 + Tozasertib; first compound 0.06325 µM)
1 | LK-2 | 1.28 | 1.13 | 1.27 | 1.46 | 1.05 | 0.74 | 0.564 | 0.674 | 0.495 | 0.889 | 0.642 | 0.509 | 0.527 | 0.317 | 0.508 | 0.174 | 0.179 | 0.182 | 0.198 | –
2 | LOU-NH91 | 0.953 | 0.912 | 0.914 | 1.01 | 0.897 | 0.94 | 0.932 | 0.945 | 0.872 | 0.944 | 0.93 | – | 0.912 | 0.89 | 0.992 | 0.653 | 0.644 | 0.644 | 0.678 | 0.406
3 | LU99A | 0.86 | 0.99 | 0.815 | 0.742 | 0.731 | 0.484 | 0.596 | 0.58 | 0.597 | 0.505 | 0.541 | 0.517 | 0.537 | 0.479 | 0.478 | 0.268 | 0.281 | 0.268 | 0.269 | 0.262
4 | LXF-289 | 0.934 | 1.03 | 1.05 | 1.09 | 0.97 | 0.982 | 1.01 | 0.96 | 0.983 | 0.956 | 0.926 | 0.944 | 1.01 | 0.96 | 0.976 | 0.187 | 0.157 | 0.203 | 0.179 | 0.148
5 | NCI-H23 | 1.01 | 0.882 | 1.12 | 1.27 | 0.973 | 0.646 | 0.541 | 0.652 | 0.724 | 0.572 | 0.508 | 0.576 | 0.407 | 0.599 | 0.508 | 0.362 | 0.253 | 0.415 | 0.429 | 0.399
6 | NCI-H322M | 0.939 | 1.09 | 1.11 | 1.03 | 0.892 | 0.832 | 0.915 | 0.967 | 1.02 | 0.893 | 0.964 | 0.809 | 0.869 | 0.996 | 0.692 | 0.522 | 0.427 | 0.449 | 0.44 | 0.464
7 | NCI-H358 | 0.631 | 0.749 | 0.829 | 0.776 | 0.489 | 0.706 | 0.781 | 0.819 | 0.933 | 0.687 | 0.826 | 0.704 | 0.731 | 0.658 | 0.651 | 0.0969 | 0.1 | 0.0977 | 0.106 | 0.0932
8 | NCI-H441 | 0.981 | 1.01 | 1.09 | 1.04 | 0.842 | 0.538 | 0.462 | 0.654 | 0.533 | 0.473 | 0.505 | 0.401 | 0.54 | 0.551 | 0.53 | 0.578 | 0.62 | 0.605 | 0.475 | 0.568
9 | NCI-H460 | 0.923 | 1.16 | 1.09 | 1.13 | 0.97 | 0.789 | 1.84 | 1.08 | 1.02 | 0.695 | 0.903 | 0.702 | 0.686 | 0.85 | 0.684 | 0.392 | 0.387 | 0.377 | 0.108 | 0.443
10 | NCI-H520 | 0.816 | 0.892 | 0.812 | 0.859 | 0.539 | 0.94 | 0.906 | 0.929 | 0.996 | 0.848 | 0.994 | 0.876 | 0.844 | 0.925 | 0.991 | 0.408 | 0.433 | 0.485 | 0.469 | 0.453
11 | NCI-H596 | 0.955 | 0.676 | 0.886 | 0.989 | 0.931 | 1.14 | 1.07 | 1.08 | 1.02 | 0.96 | 0.978 | 1.1 | 1.04 | 1.1 | 1.09 | 0.802 | 0.859 | 0.944 | 0.853 | 0.898
12 | NCI-H647 | 1.39 | 1.42 | 1.25 | 1.17 | 1.25 | 1.15 | 1.56 | 1.38 | 1.47 | 0.982 | 1.17 | 0.88 | 0.994 | 1.14 | 1.04 | 0.276 | 0.258 | 0.0983 | 0.282 | 0.212
13 | NCI-H650 | 1.05 | 1.02 | 1.1 | 1.09 | 1.08 | 0.918 | 0.696 | 1.13 | – | 0.911 | 0.868 | 0.91 | 0.85 | 0.805 | 0.773 | 0.701 | 0.706 | 0.827 | 0.679 | 0.598
14 | NCI-H661 | 1.01 | 1.29 | 1 | 1.09 | 0.894 | 0.433 | 0.645 | 0.557 | 0.518 | 0.651 | 0.55 | 0.5 | 0.53 | 0.59 | 0.507 | 0.37 | 0.359 | 0.35 | 0.345 | 0.328
15 | NCI-H727 | 1.11 | 0.879 | 1.2 | 1.07 | 0.863 | 0.31 | 0.244 | 0.335 | 0.223 | 0.242 | 0.284 | 0.275 | 0.253 | 0.3 | 0.266 | 0.577 | 0.714 | 0.465 | 0.61 | –
16 | NCI-H838 | 1.15 | 0.994 | 0.987 | 1.21 | 0.964 | 1.05 | 1.22 | 1.07 | 1 | 1 | 0.988 | 0.98 | 0.985 | 0.98 | 0.953 | 0.297 | 0.281 | 0.266 | 0.236 | 0.272

Source: the supplement of paper PMC10307832
